Data on 36 compounds can be found in US9499535B2, “Kinase inhibitors” (ORIGENIS GMBH, priority 2011, dated 2016).

This test has as its target T1, SYK kinase (Homo sapiens, UniProt P43405).
T1 construct: purchased Invitrogen, Carlsbad
Put plainly: SYK assay (OMNIA Kinase Assay, Invitrogen). The class given is biochemical. Particulars: apparent Ki calculated from the IC50 using the Cheng-Prusoff equation; 1 mM ATP, 10 μM Peptide Substrate; read-out: SYK Activities: Ki. On the procedure:
In the assay OMNIA® KINASE ASSAY by Invitrogen Corporation (Carlsbad) the effect of invention of a compound on the phosphorylation is determined by measurement of fluorescence intensity of a chelation-enhanced fluorophore called SOX. Upon phosphorylation of the peptide by the kinase of interest, Mg2+ is chelated to form a bridge between the SOX moiety and the phosphate group that is transferred to the specific tyrosine on the peptide. The fluorescence intensity is directly proportional to the amount of peptide phosphorylation.
To the wells of an 384 well small volume plate (Greiner, Frickenhausen) are added (i) the compound under test in 5% DMSO/distilled water (2 μl), (ii) 16 μl of the master mix containing ATP, DTT, Kinase Reaction Buffer, Omina Peptide Substrate Tyr 7 resulting in a final concentration of 1 mM ATP, 0.2 mM DTT and 10 μM Peptide Substrate.
The Master Mix and the assay plate was incubated to reaction temperature before the measurement (30° C.). The reaction was started with addition of (iii) 2 μl 4 μg/ml SYK kinase (Invitrogen, Carlsbad). During measurement fluorescence intensitiy readings were collected using a TECAN M1000 at a wavelength of λex 360/λem 485 nm every 30 s for 30 minutes. The reaction velocity was plotted versus the inhibitor concentration to determine the IC50 using XLFit 5.0 (IDBS, Guildford) to fit to a sigmoidal dose response curve, and the apparent Ki values were calculated from the IC50 using the Cheng-Prusoff equation (Cheng, Y.; Prusoff, W. H. Biochem. Pharmacol. 22, 3099-3108, 1973).

Take `COc1ccc2nc(Nc3ccc(N4CCOCC4)cc3C)c3n[nH]cc3c2c1` [Example #191, (8-Methoxy-2H-pyrazolo[3,4-c]quinolin-4-yl)-(2-methyl-4-morpholin-4-yl-phenyl)-amine]: the Ki was 100 to 1000 nM.

Regarding `N#Cc1ccc2nc(Nc3ccc4cn[nH]c4c3)c3n[nH]cc3c2c1` [Example #197, 4-(1H-Indazol-6-ylamino)-2H-pyrazolo[3,4-c]quinoline-8-carbonitrile], the Ki was below 10 nM. Regarding `COc1ccc(Nc2nc3ccccc3c3c(C(F)(F)F)[nH]nc23)cc1OC` [Example #210, (3,4-Dimethoxy-phenyl)-(1-trifluoromethyl-2H-pyrazolo[3,4-c]quinolin-4-yl)-amine], the Ki was 100 to 1000 nM. As for `CN1CCN(c2ccc(Nc3nc4ccccc4c4c(C(F)(F)F)[nH]nc34)cc2)CC1` [Example #211, [4-(4-Methyl-piperazin-1-yl)-phenyl]-(1-trifluoromethyl-2H-pyrazolo[3,4-c]quinolin-4-yl)-amine], the Ki was 100 to 1000 nM. Next, `FC(F)(F)c1[nH]nc2c(Nc3ccc4cn[nH]c4c3)nc3ccccc3c12` [Example #212, (1H-Indazol-6-yl)-(1-trifluoromethyl-2H-pyrazolo[3,4-c]quinolin-4-yl)-amine]: 100 to 1000 nM.

With `COc1ccc(Nc2nc3ccccc3c3c([N+](=O)[O-])[nH]nc23)cc1OC` [Example #213, (3,4-Dimethoxy-phenyl)-(1-nitro-2H-pyrazolo[3,4-c]quinolin-4-yl)-amine], the Ki is 100 to 1000 nM. Then `CN1CCN(c2ccc(Nc3nc4ccccc4c4c([N+](=O)[O-])[nH]nc34)cc2)CC1` [Example #214, [4-(4-Methyl-piperazin-1-yl)-phenyl]-(1-nitro-2H-pyrazolo[3,4-c]quinolin-4-yl)-amine], with 100 to 1000 nM; and `N#Cc1ccc2nc(Nc3ccc(N4CCOCC4)cc3)c3n[nH]cc3c2c1` [Example #217, 4-(4-Morpholin-4-yl-phenylamino)-2H-pyrazolo[3,4-c]quinoline-8-carbonitrile], with below 10 nM; and `COc1ccc(Nc2nc3snc(C)c3c3c[nH]nc23)cc1OC` [Example #218, (3,4-Dimethoxy-phenyl)-(1-methyl-7H-3-thia-2,4,6,7-tetraaza-as-indacen-5-yl)-amine], with 100 to 1000 nM. As for `Cc1nsc2nc(Nc3ccc4cn[nH]c4c3)c3n[nH]cc3c12` [Example #219, (1H-Indazol-6-yl)-(1-methyl-7H-3-thia-2,4,6,7-tetraaza-as-indacen-5-yl)-amine], the Ki is 10 to 100 nM. Next, `Cc1nsc2nc(Nc3ccc(N4CCN(C)CC4)cc3)c3n[nH]cc3c12` [Example #220, [4-(4-Methyl-piperazin-1-yl)-phenyl]-(1-methyl-7H-3-thia-2,4,6,7-tetraaza-as-indacen-5-yl)-amine]: 100 to 1000 nM. As to `COc1ccc(Nc2nc3cc(C#N)ccc3c3c(C)[nH]nc23)cc1OC` [Example #226, 4-(3,4-Dimethoxy-phenylamino)-1-methyl-2H-pyrazolo[3,4-c]quinoline-7-carbonitrile], the Ki was below 10 nM. As to `Cc1[nH]nc2c(Nc3ccc4cn[nH]c4c3)nc3cc(C#N)ccc3c12` [Example #227, 4-(1H-Indazol-6-ylamino)-1-methyl-2H-pyrazolo[3,4-c]quinoline-7-carbonitrile], the Ki is 100 to 1000 nM. As for `COc1ccc2nc(Nc3ccc(C(=O)N4CCCC4)cc3)c3n[nH]cc3c2c1` [Example #231, [4-(8-Methoxy-2H-pyrazolo[3,4-c]quinolin-4-ylamino)-phenyl]-pyrrolidin-1-yl-methanone], the Ki was 100 to 1000 nM. In the case of `COc1cccc2c1nc(Nc1ccc3c(c1)OCO3)c1n[nH]cc12` [Example #249, Benzo[1,3]dioxol-5-yl-(6-methoxy-2H-pyrazolo[3,4-c]quinolin-4-yl)-amine], the Ki is 100 to 1000 nM.

With `CCN1CCN(c2ccc(Nc3nc4cc(OC)ccc4c4c[nH]nc34)cc2)CC1` [Example #260, [4-(4-Ethyl-piperazin-1-yl)-phenyl]-(7-methoxy-2H-pyrazolo[3,4-c]quinolin-4-yl)-amine], the Ki is 10 to 100 nM. As to `COc1ccc2c(c1)nc(Nc1ccc3c(c1)OCCO3)c1n[nH]cc12` [Example #265, (2,3-Dihydro-benzo[1,4]dioxin-6-yl)-(7-methoxy-2H-pyrazolo[3,4-c]quinolin-4-yl)-amine], the Ki was 10 to 100 nM. In the case of `COc1ccc2c(c1)nc(Nc1ccc3c(c1)OCO3)c1n[nH]cc12` [Example #267, Benzo[1,3]dioxol-5-yl-(7-methoxy-2H-pyrazolo[3,4-c]quinolin-4-yl)-amine], the Ki is 10 to 100 nM. Then `COC(=O)c1scc2c1nc(Nc1ccc(OC)c(OC)c1)c1n[nH]cc12` [Example #275, 4-((3,4-dimethoxyphenyl)amino)-2H-pyrazolo[4,3-d]thieno[3,4-b]pyridine-6-carboxylic acid methyl ester], with 100 to 1000 nM; and `COc1ccc2nc(Nc3ccc(-c4ccc(C(=O)O)cc4)cc3)c3n[nH]cc3c2c1` [Example #288, 4′-((8-methoxy-2H-pyrazolo[3,4-c]quinolin-4-yl)amino)-[1,1′-biphenyl]-4-carboxylic acid], with 100 to 1000 nM. For the compound `COc1ccc2nc(Nc3ccc(NC(=O)Nc4cccc(C)c4)cc3)c3n[nH]cc3c2c1` [Example #289, 1-(4-((8-methoxy-2H-pyrazolo[3,4-c]quinolin-4-yl)amino)phenyl)-3-(m-tolyl)urea], the Ki is 10 to 100 nM. In the case of `COc1cc(OC)c2nc(Nc3ccc(NC(=O)Nc4cccc(C)c4)cc3)c3n[nH]cc3c2c1` [Example #297, 1-(4-((6,8-dimethoxy-2H-pyrazolo[3,4-c]quinolin-4-yl)amino)phenyl)-3-(m-tolyl)urea], the Ki is 100 to 1000 nM. For `COc1cc2nc(Nc3ccc(NC(=O)Nc4cccc(C)c4)cc3)c3n[nH]cc3c2cc1OC` [Example #299, 1-(4-((7,8-dimethoxy-2H-pyrazolo[3,4-c]quinolin-4-yl)amino)phenyl)-3-(m-tolyl)urea], the Ki is 100 to 1000 nM. Take `COc1ccc2nc(Nc3cccc(S(F)(F)(F)(F)F)c3)c3n[nH]cc3c2c1` [Example #309, 8-methoxy-N-(3-(pentafluorosulfanyl)phenyl)-2H-pyrazolo[3,4-c]quinolin-4-amine]: the Ki was 100 to 1000 nM. Take `COc1ccc2nc(Nc3ccc(F)c(F)c3)c3n[nH]cc3c2c1` [Example #311, N-(3,4-difluorophenyl)-8-methoxy-2H-pyrazolo[3,4-c]quinolin-4-amine]: the Ki is 10 to 100 nM. `COc1ccc2nc(Nc3cc(F)cc(F)c3)c3n[nH]cc3c2c1` [Example #315, N-(3,5-difluorophenyl)-8-methoxy-2H-pyrazolo[3,4-c]quinolin-4-amine]: the Ki was 100 to 1000 nM.

On to `COc1ccc2nc(Nc3ccc([N+](=O)[O-])cc3)c3n[nH]cc3c2c1` [Example #318, 8-methoxy-N-(4-nitrophenyl)-2H-pyrazolo[3,4-c]quinolin-4-amine], for which the Ki is below 10 nM. Regarding `COc1ccc2nc(Nc3cccc(OC)c3OC)c3n[nH]cc3c2c1` [Example #331, N-(2,3-dimethoxyphenyl)-8-methoxy-2H-pyrazolo[3,4-c]quinolin-4-amine], the Ki was 100 to 1000 nM. Then `COc1ccc(Nc2nc3ccc(OC)cc3c3c[nH]nc23)c(OC)c1` [Example #332, N-(2,4-dimethoxyphenyl)-8-methoxy-2H-pyrazolo[3,4-c]quinolin-4-amine], with 100 to 1000 nM; and `O=C1COc2ccc(Nc3nc4cc(F)ccc4c4cn[nH]c34)cc2N1` [Example #334, 6-((7-fluoro-3H-pyrazolo[3,4-c]quinolin-4-yl)amino)-2H-benzo[b][1,4]oxazin-3(4H)-one], with 10 to 100 nM.

As to `Fc1ccc2c(c1)nc(Nc1ccc(N3CCOCC3)cc1)c1[nH]ncc12` [Example #335, 7-fluoro-N-(4-morpholinophenyl)-3H-pyrazolo[3,4-c]quinolin-4-amine], the Ki is 10 to 100 nM. As to `COc1ccc(Nc2nc3cc(F)ccc3c3cn[nH]c23)cc1OC` [Example #336, N-(3,4-dimethoxyphenyl)-7-fluoro-3H-pyrazolo[3,4-c]quinolin-4-amine], the Ki was 10 to 100 nM. For the compound `O=C(c1ccc(Nc2nc3cc(F)ccc3c3cn[nH]c23)cc1)N1CCCC1` [Example #342, (4-((7-fluoro-3H-pyrazolo[3,4-c]quinolin-4-yl)amino)phenyl)(pyrrolidin-1-yl)methanone], the Ki is 100 to 1000 nM.

On to `COc1ccc2nc(Nc3ccc(-n4nccn4)cc3)c3n[nH]cc3c2c1` [Example #345, N-(4-(2H-1,2,3-triazol-2-yl)phenyl)-8-methoxy-2H-pyrazolo[3,4-c]quinolin-4-amine], for which the Ki is 100 to 1000 nM. Then `COc1ccc2nc(Nc3cccc(-n4nccn4)c3)c3n[nH]cc3c2c1` [Example #347, N-(3-(2H-1,2,3-triazol-2-yl)phenyl)-8-methoxy-2H-pyrazolo[3,4-c]quinolin-4-amine], with 100 to 1000 nM; and `COc1ccc2nc(Nc3ccc(NC(=O)c4ccc(F)cc4)cc3)c3n[nH]cc3c2c1` [Example #358, 4-fluoro-N-(4-((8-methoxy-2H-pyrazolo[3,4-c]quinolin-4-yl)amino)phenyl)benzamide], with below 10 nM.
